This note sets out measurements from patent publication US20220411448A1, “CHROMENE-4-ONE DERIVATIVES AS BRAIN-DERIVED NEUROTROPHIC FACTOR (BDNF) MIMETICS” (FLORATEK PHARMA AG, priority 2019, published 2022).

For data set [1], the system named is human hepatocytes from pooled donor lot. In words: Hepatic toxicity: cell viability by ATP content. It counts as cell-based. To be noted: 1 to 100 μM, 24 h exposure. The protocol: (§1) Cryopreserved human hepatocytes from pooled donor lot (Bioreclamation IVT) were seeded on collagen I coated 96-well plates (Corning Biocoat) at 0.55×10^5 cells per well in 120 μl InVitroGRO™ CP medium (BioIVT), including additives Torpedo Antibiotic mix (BioIVT). After cell attachment (4-6 hours post seeding) cell culture medium was replaced with fresh medium and incubated for 72 hours at 37° C. under 5% CO2. Thereafter, hepatocytes were exposed to test or control compounds in 100 μl of InVitroGRO™ HI medium, including additives Torpedo Antibiotic mix at concentrations presented below. Cytotoxicity and cell viability were evaluated based on LDH release in medium and ATP content in the cells after 24 hours exposure phase.
(§2) Cytotoxicity potency of test compounds SND118, SND121, SND122 and SND123 was assayed in human hepatocytes from pooled donor lot at three concentrations; 1, 10 and 100 μM. Cytotoxicity was assayed from medium samples after 24 h exposure period with test compounds by measuring membrane integrity (LDH leakage), coupled to fluorescent signal. In parallel, cell viability was assayed by the means of ATP content, indicating the metabolically competent cell activity. LDH and ATP assay kits were sourced from Promega. ATP content was measured based on luciferase catalysed reaction generating stable bioluminescent signal. […]

The test system is the same in data set [2]. In words: Hepatic toxicity: cytotoxicity by LDH leakage. It counts as cell-based. The following applies: 1 to 100 μM, 24 h exposure. The protocol: as §1, §2
(Release of lactate dehydrogenase indicates damage to the cell membrane.)

The next data set concerns Cox (cytochrome oxidase). In words: Quantitative PCR of mitochondrial gene Cox. It counts as cell-based, mouse. To be noted: 1 μM and 10 μM, 1 h and 2 h treatment. The procedure: The effect of Compound A or derivative thereof on the mRNA expression of genes related to plasticity (Arc, cFos, and Zif268) was determined as described. Cox (cytochrome oxidase) was used to evaluate if the derivative changes expression of mitochondrial genes.
Determination of gene expression was performed as previously described [Yang J, et al, Lactate promotes plasticity gene expression by potentiating NMDA signalling in neurons. Proc Natl Acad Sci USA. 2014. 111(33):12228-33]. Total RNA was isolated from cultured cells using Nucleospin RNA II kit (Macherey-Nagel) according to the manufacturer's instructions. The first strand of cDNA was synthesized from 100 ng of total RNA (60 min at 37° C. followed by 5 min at 95° C.) using a high-capacity RNA to cDNA reverse transcription system (Applied Biosystems). One-twentieth of the resulting cDNA was amplified by quantitative PCR (qPCR) with an ABI Prism 7900 system (Applied Biosystems). The PCR mix was composed of 6 ng of cDNA, 300 nM of forward and reverse primers in 10 μL of ix SYBR-Green PCR MasterMix (Applied Biosystems). Primer sequences were designed using Primer Express 3.0 software (Applied Biosystems) and oligonucleotides were synthesized by Microsynth.

The next data set has as its system astrocytes cultures. Nature of the data set: ROS formation (H2DCF-DA kit). It counts as cell-based, mouse. To be noted: various concentrations, 2 h. The procedure:
ROS formation has been determined as described [Yang J et al, Lactate promotes plasticity gene expression by potentiating NMDA signalling in neurons. Proc Natl Acad Sci USA. 2014. 111(33):12228-33] using a H2DCF-DA kit (ThermoFisher) as recommended by the manufacturer. Briefly, astrocytes cultures were washed twice with HBSS and incubated for 60 min in 50 μM in HBSS at 37° C. and 5% CO2 in the presence of the dye. After two washing steps with prewarmed HBSS the cells were treated with increasing concentrations of 100 μL Compound A at 37° C. and 5% CO2. Fluorescence intensity was measured after 2 h from the same plate using a fluorescence microplate reader (Safire 2; Tecan) at an excitation wavelength of 485 nm and an emission wavelength of 528 nm.
To assess the effect of Compound A on ROS accumulation in primary neuron cultures, the cells were treated with various concentration of Compound A for 2 hours and ROS was measured as described (FIG. 4).

Data set [3] can be described thus: Metabolic stability in human liver microsomes. It counts as in vitro ADME. The following applies: both sexes, pooled liver microsomes, pH 7.4, 0.5 mg/ml protein, read-out: T1/2 LM human. The procedure:
Sample type: pooled liver or intestine microsomes; Species: CD1-mouse (male), human (mixed gender) Time points: 0, 10, 20, 40, 60 min cofactors, and negative control;
Protein content: 0.5 mg/ml: Replicates: 2 with cofactors, 1 without cofactors; Cofactors: NADPH (1 mM)+UDPGA (1 mM)+15 μg/ml alamethicin Buffer: 0.1 M phosphate buffer pH 7.4, 2 mM MgCl2; Spiking solvent: 50% DMSO ( 1/100 to incubation); Quenching solvent: 2-fold volume of 75% ACN, Control: midazolam disappearance rate
The study compounds were incubated with liver or intestine microsomes as specified above. The collected samples were stored at −20 C until thawed at room temperature, centrifuged and analyzed as presented below.
The samples were analysed by UPLC/HR-MS (with data dependent MS/MS mode) to monitor substrate depletion (and later optionally metabolite formation). The analytical method was optimised by using the parent compound for optimum chromatographic properties (peak shape and retention) and mass spectrometric ionisation. Disappearance rate of the study compound was estimated based on relative LC/MS peak areas (o min marked as 100%), and was used to calculate in vitro half-life and clearance (and in vivo extrapolation of hepatic clearance).
For orientation: Liver microsomes are vesicles of endoplasmic reticulum, rich in cytochrome P450 enzymes.

With `O=c1cc(-c2ccc(CCCC[P+](c3ccccc3)(c3ccccc3)c3ccccc3)cc2)oc2c(O)c(O)ccc12` [SND118, 4-[4-(7,8-dihydroxy-4-oxo-chromen-2-yl)phenyl]butyltriphenylphosphonium bromide], the “ATP content (cell viability)” value in data set [1] is given as 72-103%. Besides, the “Cytotoxicity (LDH leakage)” value in data set [2] is 7-10%. The “mRNA expression of Cox (cytochrome oxidase)” value in the data set on Cox (cytochrome oxidase) is listed as “unaffected”. Besides, the ROS accumulation result in the data set on astrocytes cultures was “decrease in ROS accumulation”. Also, in data set [3], the half-life at 1 μM was found to be 18 min.
